Measured values taken from ChEMBL document CHEMBL1143467, “Synthesis of potent and selective serotonin 5-HT1B receptor ligands” (Bioorg Med Chem Lett, 2005).

Assays:
[1] = biological target: Mu-type opioid receptor (Homo sapiens, UniProt P35372); assay: Affinity towards cloned Opioid receptor mu 1
[2] = biological target: D(3) dopamine receptor (Homo sapiens, UniProt P35462); assay: Affinity towards cloned Dopamine receptor D3
[3] = biological target: T1, D(4) dopamine receptor (Homo sapiens, UniProt P21917); assay: Affinity towards cloned Dopamine receptor D4
T1 sequence (P21917 whole entry): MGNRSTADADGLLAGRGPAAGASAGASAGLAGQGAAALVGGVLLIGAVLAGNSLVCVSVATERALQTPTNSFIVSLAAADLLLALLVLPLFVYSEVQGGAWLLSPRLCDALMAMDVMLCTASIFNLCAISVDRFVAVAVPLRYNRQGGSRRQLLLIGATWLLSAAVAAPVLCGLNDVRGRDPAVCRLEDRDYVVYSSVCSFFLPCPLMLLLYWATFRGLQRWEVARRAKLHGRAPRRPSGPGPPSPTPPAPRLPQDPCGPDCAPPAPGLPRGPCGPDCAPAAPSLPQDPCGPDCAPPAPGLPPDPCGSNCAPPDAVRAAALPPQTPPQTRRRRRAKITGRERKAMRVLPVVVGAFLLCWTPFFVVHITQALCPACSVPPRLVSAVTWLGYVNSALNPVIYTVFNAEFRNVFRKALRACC

[4] = biological target: 5-hydroxytryptamine receptor 6 (Homo sapiens, UniProt P50406); assay: In vitro binding affinity towards cloned human 5-HT6 receptor using [3H]5-carboximidotryptamine as radioligand
[5] = biological target: 5-hydroxytryptamine receptor 7 (Homo sapiens, UniProt P34969); assay: In vitro binding affinity towards cloned human 5-HT7 receptor using [3H]5-carboximidotryptamine as radioligand
[6] = biological target: T2, 5-hydroxytryptamine receptor 2C (Homo sapiens, UniProt P28335); assay: In vitro binding affinity towards cloned human 5-HT2C receptor using [3H]5-carboximidotryptamine as radioligand
T2 sequence (P28335 whole entry): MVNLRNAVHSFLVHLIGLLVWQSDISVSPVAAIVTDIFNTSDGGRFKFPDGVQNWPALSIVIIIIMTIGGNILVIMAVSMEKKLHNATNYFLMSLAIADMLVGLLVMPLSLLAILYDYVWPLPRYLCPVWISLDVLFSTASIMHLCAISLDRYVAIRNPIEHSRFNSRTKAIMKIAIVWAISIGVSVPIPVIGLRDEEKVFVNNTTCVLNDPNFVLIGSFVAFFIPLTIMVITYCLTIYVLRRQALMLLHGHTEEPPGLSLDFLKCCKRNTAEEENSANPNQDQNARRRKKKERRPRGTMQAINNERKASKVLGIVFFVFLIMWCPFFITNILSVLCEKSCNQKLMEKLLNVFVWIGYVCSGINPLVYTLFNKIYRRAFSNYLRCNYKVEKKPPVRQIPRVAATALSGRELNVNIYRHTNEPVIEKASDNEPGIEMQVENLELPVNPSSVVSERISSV

[7] = biological target: Kappa-type opioid receptor (Homo sapiens, UniProt P41145); assay: Affinity towards cloned Opioid receptor kappa 1
[8] = biological target: 5-hydroxytryptamine receptor 1B (Homo sapiens, UniProt P28222); assay: In vitro binding affinity towards cloned human 5-HT1B receptor using [3H]5-carboximidotryptamine as radioligand
[9] = biological target: Histamine H1 receptor (Homo sapiens, UniProt P35367); assay: Affinity towards cloned Histamine H1 receptor
[10] = biological target: T3, Muscarinic acetylcholine receptor M1 (Homo sapiens, UniProt P11229); assay: Affinity towards cloned Muscarinic acetylcholine receptor M1
T3 sequence (P11229 whole entry): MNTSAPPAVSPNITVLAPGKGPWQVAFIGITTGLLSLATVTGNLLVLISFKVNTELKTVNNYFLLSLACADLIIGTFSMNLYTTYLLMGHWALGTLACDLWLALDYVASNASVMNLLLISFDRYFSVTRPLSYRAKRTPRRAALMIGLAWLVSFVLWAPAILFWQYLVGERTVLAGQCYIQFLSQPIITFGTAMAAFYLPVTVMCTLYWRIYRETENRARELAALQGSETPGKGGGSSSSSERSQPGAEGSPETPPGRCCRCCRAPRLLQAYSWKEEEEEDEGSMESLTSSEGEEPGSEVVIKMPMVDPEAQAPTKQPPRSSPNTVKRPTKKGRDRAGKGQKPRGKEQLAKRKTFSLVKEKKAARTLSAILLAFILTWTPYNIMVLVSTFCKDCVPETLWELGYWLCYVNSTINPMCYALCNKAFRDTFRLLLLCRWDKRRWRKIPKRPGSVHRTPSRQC

[11] = biological target: D(1B) dopamine receptor (Homo sapiens, UniProt P21918); assay: Affinity towards cloned Dopamine receptor D5
[12] = biological target: 5-hydroxytryptamine receptor 2A (Homo sapiens, UniProt P28223); assay: In vitro binding affinity towards cloned human 5-HT2A receptor using [3H]5-carboximidotryptamine as radioligand
[13] = biological target: D(2) dopamine receptor (Homo sapiens, UniProt P14416); assay: Affinity towards cloned Dopamine receptor D2
[14] = biological target: 5-hydroxytryptamine receptor 1D (Homo sapiens, UniProt P28221); assay: In vitro binding affinity towards cloned human 5-HT1D receptor using [3H]5-carboximidotryptamine as radioligand
[15] = Affinity towards cloned Nicotinic acetylcholine receptor
[16] = biological target: T4, Muscarinic acetylcholine receptor M4 (Homo sapiens, UniProt P08173); assay: Affinity towards cloned Muscarinic acetylcholine receptor M4
T4 sequence (P08173 whole entry): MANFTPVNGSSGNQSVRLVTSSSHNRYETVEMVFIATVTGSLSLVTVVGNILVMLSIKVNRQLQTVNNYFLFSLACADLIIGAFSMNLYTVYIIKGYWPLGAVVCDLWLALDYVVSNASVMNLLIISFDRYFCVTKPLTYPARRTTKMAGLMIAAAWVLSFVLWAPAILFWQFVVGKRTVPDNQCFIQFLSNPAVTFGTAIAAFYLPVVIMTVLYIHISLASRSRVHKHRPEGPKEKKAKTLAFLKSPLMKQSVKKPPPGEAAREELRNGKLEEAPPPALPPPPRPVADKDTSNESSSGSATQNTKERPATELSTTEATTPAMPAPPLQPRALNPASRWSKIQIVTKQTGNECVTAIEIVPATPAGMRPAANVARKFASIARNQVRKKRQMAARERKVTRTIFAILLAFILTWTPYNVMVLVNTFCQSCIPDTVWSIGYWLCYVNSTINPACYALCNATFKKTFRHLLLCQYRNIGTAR

[17] = biological target: Muscarinic acetylcholine receptor M3 (Homo sapiens, UniProt P20309); assay: Affinity towards cloned Muscarinic acetylcholine receptor M3
[18] = biological target: D(1A) dopamine receptor (Homo sapiens, UniProt P21728); assay: Affinity towards cloned Dopamine receptor D1
[19] = biological target: T5, Muscarinic acetylcholine receptor M2 (Homo sapiens, UniProt P08172); assay: Affinity towards cloned Muscarinic acetylcholine receptor M2
T5 sequence (P08172 whole entry): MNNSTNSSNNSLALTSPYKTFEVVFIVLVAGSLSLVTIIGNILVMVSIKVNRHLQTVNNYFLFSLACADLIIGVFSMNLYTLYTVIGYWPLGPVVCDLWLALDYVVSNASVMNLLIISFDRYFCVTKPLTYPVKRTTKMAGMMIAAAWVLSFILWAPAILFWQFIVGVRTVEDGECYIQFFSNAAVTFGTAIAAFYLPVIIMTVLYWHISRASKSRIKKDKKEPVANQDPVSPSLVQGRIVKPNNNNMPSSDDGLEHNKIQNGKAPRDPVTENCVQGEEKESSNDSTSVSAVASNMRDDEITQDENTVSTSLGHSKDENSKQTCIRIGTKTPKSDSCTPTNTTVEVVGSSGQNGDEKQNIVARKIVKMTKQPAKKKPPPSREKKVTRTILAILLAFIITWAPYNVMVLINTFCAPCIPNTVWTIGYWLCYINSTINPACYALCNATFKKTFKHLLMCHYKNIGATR

[20] = biological target: T6, Muscarinic acetylcholine receptor M5 (Homo sapiens, UniProt P08912); assay: Affinity towards cloned Muscarinic acetylcholine receptor M5
T6 sequence (P08912 whole entry): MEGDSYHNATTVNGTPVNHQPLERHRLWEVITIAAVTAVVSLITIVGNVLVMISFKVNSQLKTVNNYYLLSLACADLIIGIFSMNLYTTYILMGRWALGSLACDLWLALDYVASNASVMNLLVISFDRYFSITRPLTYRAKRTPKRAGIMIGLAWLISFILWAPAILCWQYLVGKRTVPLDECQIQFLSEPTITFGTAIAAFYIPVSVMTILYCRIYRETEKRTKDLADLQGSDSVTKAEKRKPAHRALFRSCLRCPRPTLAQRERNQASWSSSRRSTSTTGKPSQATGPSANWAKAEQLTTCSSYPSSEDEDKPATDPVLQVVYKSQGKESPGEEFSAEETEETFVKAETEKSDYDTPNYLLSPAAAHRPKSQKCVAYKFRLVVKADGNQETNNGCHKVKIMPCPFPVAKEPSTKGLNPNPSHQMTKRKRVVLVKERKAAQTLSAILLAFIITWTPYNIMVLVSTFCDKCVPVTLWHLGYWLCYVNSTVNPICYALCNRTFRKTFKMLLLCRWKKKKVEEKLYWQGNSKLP

[21] = biological target: Delta-type opioid receptor (Homo sapiens, UniProt P41143); assay: Affinity towards cloned Opioid receptor delta 1
Sequence of Delta-type opioid receptor (P41143 whole entry): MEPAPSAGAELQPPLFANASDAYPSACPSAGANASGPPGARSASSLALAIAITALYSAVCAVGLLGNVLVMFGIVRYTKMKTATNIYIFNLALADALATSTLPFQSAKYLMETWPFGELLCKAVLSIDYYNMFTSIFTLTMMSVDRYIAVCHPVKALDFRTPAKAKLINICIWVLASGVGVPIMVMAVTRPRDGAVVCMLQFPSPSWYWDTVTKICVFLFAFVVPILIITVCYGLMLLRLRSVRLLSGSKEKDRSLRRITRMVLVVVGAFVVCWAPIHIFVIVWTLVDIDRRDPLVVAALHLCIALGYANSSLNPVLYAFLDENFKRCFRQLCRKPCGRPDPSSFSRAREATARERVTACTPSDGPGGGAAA

Sequence of D(1B) dopamine receptor (P21918 whole entry): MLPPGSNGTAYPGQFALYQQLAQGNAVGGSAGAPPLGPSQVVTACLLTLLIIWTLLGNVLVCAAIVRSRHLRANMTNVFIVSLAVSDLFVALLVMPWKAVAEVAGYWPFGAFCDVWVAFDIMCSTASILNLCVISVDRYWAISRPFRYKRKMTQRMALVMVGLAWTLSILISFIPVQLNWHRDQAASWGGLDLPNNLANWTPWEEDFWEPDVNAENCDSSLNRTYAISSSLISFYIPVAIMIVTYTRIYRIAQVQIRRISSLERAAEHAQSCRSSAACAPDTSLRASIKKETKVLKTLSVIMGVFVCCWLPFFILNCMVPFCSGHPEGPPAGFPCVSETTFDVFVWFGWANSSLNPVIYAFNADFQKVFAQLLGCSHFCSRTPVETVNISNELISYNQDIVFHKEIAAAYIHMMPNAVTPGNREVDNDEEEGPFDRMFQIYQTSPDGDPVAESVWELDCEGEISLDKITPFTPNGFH
Sequence of D(2) dopamine receptor (P14416 whole entry): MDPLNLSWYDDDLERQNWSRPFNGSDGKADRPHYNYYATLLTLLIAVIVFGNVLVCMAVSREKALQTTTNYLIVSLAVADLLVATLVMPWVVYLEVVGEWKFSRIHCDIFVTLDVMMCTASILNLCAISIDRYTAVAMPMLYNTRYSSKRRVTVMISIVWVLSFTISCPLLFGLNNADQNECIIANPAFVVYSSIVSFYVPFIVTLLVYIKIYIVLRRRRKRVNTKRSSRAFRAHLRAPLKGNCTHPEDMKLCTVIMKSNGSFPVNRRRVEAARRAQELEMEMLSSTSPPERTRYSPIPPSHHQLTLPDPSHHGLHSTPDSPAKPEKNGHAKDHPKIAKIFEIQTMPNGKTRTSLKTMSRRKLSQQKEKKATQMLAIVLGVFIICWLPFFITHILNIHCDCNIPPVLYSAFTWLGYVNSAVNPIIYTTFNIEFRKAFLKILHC
Sequence of Histamine H1 receptor (P35367 whole entry): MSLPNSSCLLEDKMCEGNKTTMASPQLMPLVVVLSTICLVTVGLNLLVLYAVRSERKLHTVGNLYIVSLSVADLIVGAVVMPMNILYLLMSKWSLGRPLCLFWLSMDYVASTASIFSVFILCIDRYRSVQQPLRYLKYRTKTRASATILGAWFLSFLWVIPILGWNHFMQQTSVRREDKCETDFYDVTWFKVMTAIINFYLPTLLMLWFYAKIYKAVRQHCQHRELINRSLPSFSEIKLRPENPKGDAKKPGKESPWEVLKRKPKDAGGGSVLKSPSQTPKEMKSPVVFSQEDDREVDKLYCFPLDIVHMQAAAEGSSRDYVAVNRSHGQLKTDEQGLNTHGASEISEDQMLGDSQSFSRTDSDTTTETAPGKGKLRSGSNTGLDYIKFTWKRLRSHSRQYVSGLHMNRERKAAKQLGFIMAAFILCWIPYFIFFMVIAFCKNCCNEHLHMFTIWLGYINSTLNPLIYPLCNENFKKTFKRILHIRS
Sequence of Kappa-type opioid receptor (P41145 whole entry): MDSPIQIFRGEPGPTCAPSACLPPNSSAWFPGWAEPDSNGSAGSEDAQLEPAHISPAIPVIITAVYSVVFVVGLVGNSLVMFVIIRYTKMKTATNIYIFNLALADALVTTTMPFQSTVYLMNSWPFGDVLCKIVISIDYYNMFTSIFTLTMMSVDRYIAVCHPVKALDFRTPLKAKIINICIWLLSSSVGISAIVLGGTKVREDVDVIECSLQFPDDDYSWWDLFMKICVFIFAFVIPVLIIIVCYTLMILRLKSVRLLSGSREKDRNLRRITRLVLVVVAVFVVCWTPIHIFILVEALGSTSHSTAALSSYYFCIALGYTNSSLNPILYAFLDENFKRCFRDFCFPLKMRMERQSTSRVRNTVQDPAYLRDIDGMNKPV
Sequence of Muscarinic acetylcholine receptor M3 (P20309 whole entry): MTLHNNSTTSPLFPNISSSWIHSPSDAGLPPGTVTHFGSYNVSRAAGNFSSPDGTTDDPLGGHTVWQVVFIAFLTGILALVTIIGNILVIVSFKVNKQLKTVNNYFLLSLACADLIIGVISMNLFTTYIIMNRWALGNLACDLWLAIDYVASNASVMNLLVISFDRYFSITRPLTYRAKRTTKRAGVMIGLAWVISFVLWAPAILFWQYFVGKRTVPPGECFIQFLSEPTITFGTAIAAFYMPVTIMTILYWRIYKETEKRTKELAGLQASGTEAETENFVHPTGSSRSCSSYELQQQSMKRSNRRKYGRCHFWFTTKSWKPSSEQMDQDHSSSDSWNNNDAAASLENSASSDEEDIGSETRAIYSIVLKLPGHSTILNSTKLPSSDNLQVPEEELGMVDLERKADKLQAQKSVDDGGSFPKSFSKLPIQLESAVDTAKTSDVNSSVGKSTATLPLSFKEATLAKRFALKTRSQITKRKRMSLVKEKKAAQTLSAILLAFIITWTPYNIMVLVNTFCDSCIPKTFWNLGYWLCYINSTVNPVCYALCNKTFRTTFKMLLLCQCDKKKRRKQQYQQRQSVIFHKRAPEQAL
Sequence of 5-hydroxytryptamine receptor 1B (P28222 whole entry): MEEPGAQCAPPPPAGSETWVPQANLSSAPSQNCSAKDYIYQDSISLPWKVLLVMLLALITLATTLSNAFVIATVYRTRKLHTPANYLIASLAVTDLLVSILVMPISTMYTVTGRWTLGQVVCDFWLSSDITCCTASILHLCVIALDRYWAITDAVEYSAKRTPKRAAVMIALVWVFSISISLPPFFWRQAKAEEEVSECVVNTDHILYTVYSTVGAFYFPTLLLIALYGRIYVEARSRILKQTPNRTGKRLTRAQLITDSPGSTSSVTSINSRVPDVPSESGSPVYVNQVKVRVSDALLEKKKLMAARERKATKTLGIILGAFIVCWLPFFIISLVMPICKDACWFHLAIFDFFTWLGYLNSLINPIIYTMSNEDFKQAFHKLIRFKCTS
Sequence of 5-hydroxytryptamine receptor 7 (P34969 whole entry): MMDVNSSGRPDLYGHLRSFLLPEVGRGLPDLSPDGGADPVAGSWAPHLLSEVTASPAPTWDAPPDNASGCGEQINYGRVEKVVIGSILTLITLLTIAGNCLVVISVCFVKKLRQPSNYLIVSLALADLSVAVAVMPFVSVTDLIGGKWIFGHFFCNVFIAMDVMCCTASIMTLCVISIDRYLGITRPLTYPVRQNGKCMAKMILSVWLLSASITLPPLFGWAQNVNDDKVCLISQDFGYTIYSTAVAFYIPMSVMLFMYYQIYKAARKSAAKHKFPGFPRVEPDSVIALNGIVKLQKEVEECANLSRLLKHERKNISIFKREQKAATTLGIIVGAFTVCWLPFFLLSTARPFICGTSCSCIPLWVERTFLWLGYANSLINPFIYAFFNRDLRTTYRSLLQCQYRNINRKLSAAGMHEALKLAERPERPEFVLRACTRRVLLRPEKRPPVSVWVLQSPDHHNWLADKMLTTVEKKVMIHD
Sequence of Mu-type opioid receptor (P35372 whole entry): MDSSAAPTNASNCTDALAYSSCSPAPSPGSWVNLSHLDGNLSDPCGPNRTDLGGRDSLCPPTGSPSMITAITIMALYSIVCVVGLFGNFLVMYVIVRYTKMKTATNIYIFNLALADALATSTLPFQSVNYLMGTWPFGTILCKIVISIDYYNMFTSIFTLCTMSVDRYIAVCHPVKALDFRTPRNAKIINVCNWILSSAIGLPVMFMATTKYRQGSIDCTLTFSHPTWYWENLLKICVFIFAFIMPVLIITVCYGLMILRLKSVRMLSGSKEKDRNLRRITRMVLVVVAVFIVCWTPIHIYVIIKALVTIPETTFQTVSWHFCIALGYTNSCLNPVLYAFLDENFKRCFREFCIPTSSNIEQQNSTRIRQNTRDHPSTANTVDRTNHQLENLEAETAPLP
Sequence of 5-hydroxytryptamine receptor 2A (P28223 whole entry): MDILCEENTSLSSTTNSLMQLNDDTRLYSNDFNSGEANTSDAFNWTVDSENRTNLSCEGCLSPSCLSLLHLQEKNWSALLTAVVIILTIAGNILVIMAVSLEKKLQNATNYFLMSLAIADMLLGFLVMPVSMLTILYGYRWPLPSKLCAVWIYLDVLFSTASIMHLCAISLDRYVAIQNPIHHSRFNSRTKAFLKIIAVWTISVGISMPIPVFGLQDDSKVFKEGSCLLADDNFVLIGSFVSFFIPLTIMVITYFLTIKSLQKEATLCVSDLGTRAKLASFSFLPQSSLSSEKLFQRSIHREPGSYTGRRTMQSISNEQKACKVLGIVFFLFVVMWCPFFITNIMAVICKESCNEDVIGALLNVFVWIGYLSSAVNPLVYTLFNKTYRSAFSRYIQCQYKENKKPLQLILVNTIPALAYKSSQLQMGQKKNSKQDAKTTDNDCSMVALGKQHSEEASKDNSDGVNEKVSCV
Sequence of D(3) dopamine receptor (P35462 whole entry): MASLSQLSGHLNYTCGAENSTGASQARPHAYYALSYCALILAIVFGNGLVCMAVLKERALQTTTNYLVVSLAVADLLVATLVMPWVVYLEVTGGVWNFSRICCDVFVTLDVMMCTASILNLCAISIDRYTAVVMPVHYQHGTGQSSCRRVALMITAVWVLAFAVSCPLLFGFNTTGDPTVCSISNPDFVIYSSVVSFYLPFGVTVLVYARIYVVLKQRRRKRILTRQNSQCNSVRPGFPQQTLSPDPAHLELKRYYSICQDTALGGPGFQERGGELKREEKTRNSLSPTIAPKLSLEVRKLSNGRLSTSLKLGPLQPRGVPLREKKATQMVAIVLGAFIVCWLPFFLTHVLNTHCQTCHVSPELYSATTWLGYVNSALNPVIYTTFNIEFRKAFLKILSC

## COc1ccc(NC(=O)N2CCN(c3ccccc3OC)CC2)cc1N1CCN(C)CC1
[1]
  Ki: > 10 µM
[2]
  Ki: > 10 µM
[3]
  Ki: > 10 µM
[4]
  Ki: 2.41 µM
[5]
  Ki: 1.41 µM
[6]
  Ki: 1.94 µM
[7]
  Ki: > 10 µM
[8]
  Ki: 0.0124 µM
[9]
  Ki: > 10 µM
[10]
  Ki: > 10 µM
[11]
  Ki: > 10 µM
[12]
  Ki: 6.74 µM
[13]
  Ki: > 10 µM
[14]
  Ki: 0.106 µM
[15]
  Ki: > 10 µM
[16]
  Ki: > 10 µM
[17]
  Ki: > 10 µM
[18]
  Ki: > 10 µM
[19]
  Ki: > 10 µM
[20]
  Ki: > 10 µM
[21]
  Ki: > 10 µM
